{"source": "patent US20200345721A1", "about": "“Device for Deterring Abuse of Drugs” (EIGHTY EIGHT PHARMA, INC., priority 2019, published 2020)", "key": {"[1]": {"system": "guinea pig", "conditions": "cited from earlier work"}, "[2]": {"system": "animals", "conditions": "cited from earlier work"}, "[3]": {"assay": "Naltrexone HCl solubility, HPLC analysis", "format": "physicochemical", "conditions": "for solubility at 2 h / solubility at 1 h / solubility: thermodynamic from solid; for solubility at 1 h: sample 50 mg/mL", "description": "To determine the solubility of Naltrexone HCl in solutions of 100% water or 60%/40% Ethanol/water, solutions of Naltrexone HCl were prepared at 50 mg/mL and 100 mg/mL in 100% water or 60%/40% ethanol/water for a total of 4 solutions. Solutions were vortex mixed, placed on a mechanical shaker and evaluated every 30 minutes for complete dissolution. Once fully dissolved, each solution was prepared for HPLC by diluting to 2 mg/mL in methanol and 0.1M phosphoric acid and analyzed on an HPLC.\nThe 50 mg/mL samples were fully dissolved into solution following 1 hour on the mechanical shaker with periodic vortex mixing. The 100 mg/mL solution prepared in the ethanol/water mixture was dissolved after a total of 2 hours shaking with periodic vertex mixing. The 100 mg/mL solution in 100% water was also sonicated. HPLC results are included in Table 3."}, "[4]": {"system": "humans", "conditions": "800 mg daily for up to one week, human subjects; cited from earlier work"}, "[5]": {"system": "rat", "conditions": "cited from earlier work"}, "[6]": {"system": "pharmacologic effects of 25 mg of intravenously administered heroin", "conditions": "cited from earlier work"}, "[7]": {"assay": "Naltrexone recovered from IR and ER tablets, 23 mg/mL solutions (Example 4)", "conditions": "23 mg/ml ethanol/water solution, lower proportion of ethanol", "description": "To compare formulations of Naltrexone and Naltrexone HCl which will deposit 3.6-9.6 mg of Naltrexone onto small IR tablets, small extended release (“ER”) tablets and large ER tablets, Naltrexone (23 mg/ml) and Naltrexone HCl (23 mg/ml) solutions were used. Six (6) small IR tablets (Homeopathy Blank 5 Grain, Lactose, Lot #: 07090710H3, Exp. 08/23), six (6) small ER Tablets (Mucus Relief Guaifenesin Extended-Release Tablets, 600 mg, Lot #: F07210, Exp. 04/20), and three (3) large ER tablets (Mucus Relief Guaifenesin Extended-Release Tablets, 1200 mg, Lot #: F08474, Exp. 05/20) were tested. Tablets were placed in test tubes or kept in their blister packaging and spiked with a 23 mg/mL spiking solution containing either Naltrexone Base or Naltrexone HCl. Small tablets (IR and ER) were divided into two groups of 3 and coated with a solution prepared with either Naltrexone base (23 mg/ml) or Naltrexone HCl (23 mg/ml). Large ER tablets were spiked with Naltrexone base solution only while remaining in their original blister packaging. Each tablet remained in solution for a period of 2, 6 or 10 minutes before removal and testing form Naltrexone. The large ER tablets spiked with Naltrexone NCl were not completed due to time limitations"}, "[8]": {"assay": "Solubility of naltrexone in ethanol/water", "format": "physicochemical", "description": "A solution of naltrexone in 60% Ethanol/40% water at a concentration of 19 mg/ml was achieved without precipitation.\nTo determine a formulation which will deposit 3.6-9.6 mg of Naltrexone onto small IR tablets within a specified period of time, the ratio of ethanol to water was adjusted to increase solubility of Naltrexone."}}, "note": "Where a name gives a salt, the structure may show the parent alone. Read-outs that look alike come from different tables or passages of the source."}
{"smiles": "O=C1CC[C@@]2(O)[C@H]3Cc4ccc(O)c5c4[C@@]2(CCN3CC2CC2)[C@H]1O5", "note": "[Naltrexone HCl, naltrexone hydrochloride]", "values": [{"measurement": "oral LD50", "setting": "[1]", "result": "1,490 mg/kg"}, {"measurement": "signs produced by high doses", "setting": "[2]; high doses, generally >1,000 mg/kg", "result": "salivation, depression/reduced activity, tremors, and convulsions"}, {"measurement": "time on mechanical shaker until fully dissolved", "setting": "[3]; 50 mg/mL samples, periodic vortex mixing", "result": 1, "unit": "h"}, {"measurement": "total shaking time until dissolved", "setting": "[3]; 100 mg/mL in ethanol/water mixture", "result": 2, "unit": "h"}, {"measurement": "solubility at 2 h", "setting": "[3]; 60%/40% ethanol/water, aqueous with cosolvent or surfactant or cyclodextrin, 60%/40% ethanol/water, read-out: solubility (soluble up to)", "result": "≥ 100", "unit": "mg/mL"}, {"measurement": "solubility at 1 h", "setting": "[3]; 60:40 ethanol:water, aqueous with cosolvent or surfactant or cyclodextrin, 60:40 Ethanol:water, HPLC, read-out: Solubilized Concentration", "result": 48.6, "unit": "mg/mL"}, {"measurement": "solubility at 2 h", "setting": "[3]; 60:40 ethanol:water, aqueous with cosolvent or surfactant or cyclodextrin, sample 100 mg/mL, 60:40 Ethanol:water, HPLC, read-out: Solubilized Concentration", "result": 96.1, "unit": "mg/mL"}, {"measurement": "solubility", "setting": "[3]; 100% water, water, 100% water, read-out: solubility (soluble up to)", "result": "≥ 100", "unit": "mg/mL"}, {"measurement": "solubility at 1 h", "setting": "[3]; 100% water, water, 100% water, HPLC, read-out: Solubilized Concentration", "result": 49, "unit": "mg/mL"}, {"measurement": "solubility", "setting": "[3]; 100% water, water, sample 100 mg/mL, 100% water, HPLC, read-out: Solubilized Concentration", "result": 96.9, "unit": "mg/mL"}, {"measurement": "evidence of toxicity", "setting": "[4]", "result": "no evidence of toxicity"}, {"measurement": "oral LD50", "setting": "[5]", "result": "1,450 mg/kg"}, {"measurement": "duration of blockade of pharmacologic effects of heroin", "setting": "[6]; 50 mg naltrexone hydrochloride vs 25 mg intravenous heroin", "result": "≤ 24", "unit": "hours"}, {"measurement": "duration of blockade", "setting": "[6]; doubling the dose of naltrexone hydrochloride", "result": 48, "unit": "h"}, {"measurement": "duration of blockade", "setting": "[6]; tripling the dose of naltrexone hydrochloride", "result": "about 72 hours"}]}
{"smiles": "O=C1CC[C@@]2(O)[C@H]3Cc4ccc(O)c5c4[C@@]2(CCN3CC2CC2)[C@H]1O5", "note": "[Naltrexone Base, naltrexone]", "values": [{"measurement": "stability of the solution", "setting": "[7]", "result": "comes out of solution over time"}, {"measurement": "cause of mortalities", "setting": "[2]; high-dose administration, animals", "result": "tonic-clonic convulsions and/or respiratory failure"}, {"measurement": "concentration achieved without precipitation", "setting": "[8]; 60% Ethanol/40% water", "result": 19000, "unit": "µg/mL"}, {"measurement": "final concentration of solution, titrated with water until precipitates formed", "setting": "[8]; 75:25 ethanol to water", "result": 37.5, "unit": "mg/mL"}]}
